Test results taken from patent US7968710B2, “Prokineticin 1 receptor antagonists” (Janssen Pharmaceutica NV, priority 2005, dated 2011).
“And” between values parts separate entries of the source, which are not always exact repeats. Equal entries are not always repeated.

Legend:
[1] = molecular target: PK1 receptor (Rattus norvegicus, UniProt Q8R416); experiment: Inhibition of PK1-evoked increase in Isc by PK1 receptor antagonists in Ussing-type ion flux chambers; settings: test compound 1 μM, 15 min incubation, PK1 10 and 100 nM cumulative
PK1 receptor, sequence (Q8R416 whole entry): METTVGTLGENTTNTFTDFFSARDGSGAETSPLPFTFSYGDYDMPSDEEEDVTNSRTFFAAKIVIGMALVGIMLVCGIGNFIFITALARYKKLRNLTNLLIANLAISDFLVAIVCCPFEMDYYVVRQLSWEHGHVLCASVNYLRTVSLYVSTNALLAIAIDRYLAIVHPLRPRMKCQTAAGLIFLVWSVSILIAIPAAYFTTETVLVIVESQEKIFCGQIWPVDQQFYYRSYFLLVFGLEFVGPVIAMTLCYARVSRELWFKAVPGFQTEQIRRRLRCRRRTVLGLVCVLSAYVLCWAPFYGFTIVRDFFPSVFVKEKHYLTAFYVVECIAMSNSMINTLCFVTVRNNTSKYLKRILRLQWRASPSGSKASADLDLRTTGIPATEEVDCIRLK
Excerpt: Methodology. The basic methodology for Ussing-type ion flux chambers used in these studies was the same as that described in detail above with the following modifications to the experimental protocol.

[2] = molecular target: T1, HEK 293 GPR73 (prokineticin 1 receptor) expressing cells (Homo sapiens, UniProt Q8TCW9); experiment: PK1 functional assay: screening for PK1 antagonists on the FLIPR (calcium mobilization); type: cell-based; settings: HEK 293 GPR73 cells; for inhibition at 10 µM: HEK293, 10 μM compound, read-out: Ca^2+ Mobilization % Inh @10 μM; for IC50: PK1 ligand at EC50, read-out: Ca^2+ Mobilization IC50; for Ca^2+ Mobilization % Inh @10 μM: 10 μM compound
T1 construct: expressed in transfected cells; host or cells: HEK 293
T1 sequence (Q8TCW9 whole entry): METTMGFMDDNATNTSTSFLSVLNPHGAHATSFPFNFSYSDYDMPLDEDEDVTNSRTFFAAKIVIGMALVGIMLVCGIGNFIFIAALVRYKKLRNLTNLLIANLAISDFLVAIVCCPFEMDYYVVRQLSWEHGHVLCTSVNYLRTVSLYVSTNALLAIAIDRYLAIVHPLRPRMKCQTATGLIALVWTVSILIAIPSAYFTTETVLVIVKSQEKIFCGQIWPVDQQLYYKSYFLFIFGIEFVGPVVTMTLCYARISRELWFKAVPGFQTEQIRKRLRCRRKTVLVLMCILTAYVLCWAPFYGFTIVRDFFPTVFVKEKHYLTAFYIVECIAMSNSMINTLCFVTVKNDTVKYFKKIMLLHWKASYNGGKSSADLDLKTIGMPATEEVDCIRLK
Procedure: Screening Procedure for PK1 Antagonists on the Fluorometric Imaging Plate Reader (FLIPR)
At a time of 24 h prior to running the assay, in cell culture media (DMEM containing high Glucose and L-glutamine, 10% FBS, 1% Pen/Streptomycin, 1% Sodium Pyruvate, 20 mM HEPES, Zeocin 200 mg/L), 100 μL of 1.3*10^6/ml HEK 293 GPR73 (prokineticin 1 receptor) expressing cells were plated in a 96 well poly-d-lysine coated plate (Costar), and incubated at 37 C and 5% CO2. On the day in which the assay was run, the media was removed and 200 μL of 5× Calcium Plus Dye (Molecular Devices) which was previously resuspended with 200 mL of assay buffer [HBSS w/Ca^2+ and Mg^2+ w/o phenol red, 20 mM HEPES, 0.1% BSA, 10 mL probenecid (710 mg probenecid in 5 mL of 1N NaOH, to which was then added 5 mL HBSS containing 20 mM HEPES)] was added to each well of the 96-well plate. The plate was incubated at 37 C and 5% CO2 for 30 min in dark. The plate was removed and allowed to reach RT for 15 min in the dark. The assay was then run on the FLIPR. […] Baseline is described as the amount of relative fluorescence read when buffer alone is added to cells. Baseline was subtracted from all wells. Percent of control was calculated as follows: (Baseline subtracted well value is divided by baseline subtracted max value)*100. Percent inhibition is 100 minus the percent of control value.
IC50 values were calculated using GraphPad Prism.

[3] = system: ileum mucosal tissues from PK1 receptor knock-out mice; experiment: PK1-evoked Isc in ileum mucosal tissues from PK1 receptor knock-out mice; settings: exogenous PK1 peptide, PK1 receptor knock-out mice ileum mucosa
[4] = system: rat ileal tissues; experiment: Effect of PK1 on secretion and gut mucosal ion transport (short-circuit current, Ussing-type flux chamber)

| Molecule | inhibition at 10 µM [2] | IC50 [2] | Ca^2+ Mobilization % Inh @10 μM [2] | further results |
| --- | --- | --- | --- | --- |
| COc1ccc(Cn2c(NCCNC(=N)N)nc(=O)n(Cc3ccccc3)c2=O)cc1 [Cpd 2] | – | – | – | inhibition of the PK1 evoked increase in Isc [1]: successfully achieved |
| N=C(N)NCCNc1nc(=O)n(Cc2ccccc2)c(=O)n1Cc1ccc([N+](=O)[O-])cc1 [Cpd 9] | 35% | > 10000 nM | – | – |
| COc1ccc(Cn2c(NCCONC(=N)N)nc(=O)n(Cc3ccccc3)c2=O)cc1 [Cpd 10] | – | – | 33% | – |
| COc1ccc(Cn2c(NCCNC(=N)N)nc(=O)n(Cc3ccc(F)cc3)c2=O)cc1 [Cpd 17, N-{2-[5-(4-Fluoro-benzyl)-1-(4-methoxy-benzyl)-4,6-dioxo-1,4,5,6-tetrahydro-[1,3,5]triazin-2-ylamino]-ethyl}-guanidine] | – | – | – | inhibition of the PK1 evoked increase in Isc [1]: successfully achieved |
| COc1ccc(Cn2c(N[C@@H]3CCCC[C@H]3NC(=N)N)nc(=O)n(Cc3ccc(Cl)c(Cl)c3)c2=O)cc1 [Cpd 47] | 101% | 57 nM | – | – |
| COc1ccc(Cn2c(NCCNC(=N)NC(C)C)nc(=O)n(Cc3ccc(Cl)c(Cl)c3)c2=O)cc1 [Cpd 58, N-{2-[5-(3,4-Dichloro-benzyl)-1-(4-methoxy-benzyl)-4,6-dioxo-1,4,5,6-tetrahydro-[1,3,5]triazin-2-ylamino]-ethyl}-N′-isopropyl-guanidine] | 102% | 7 nM and 16 nM (2×) | – | inhibition of the PK1 evoked increase in Isc [1]: successfully achieved; Ca^2+ Mobilization % Inh @10 μM ([2]; 10 µM): 99% and 98% |
| COc1ccc(Cn2c(NCCNC(=N)NCCc3ccccc3)nc(=O)n(Cc3ccc(Cl)c(Cl)c3)c2=O)cc1 [Cpd 65] | – | 485 nM | 88% | – |
| COc1ccc(Cn2c(NCCNC(=N)Nc3ccc(C#N)cc3)nc(=O)n(Cc3ccc(F)cc3)c2=O)cc1 [Cpd 90, N-(4-Cyano-phenyl)-N′-{2-[5-(4-fluoro-benzyl)-1-(4-methoxy-benzyl)-4,6-dioxo-1,4,5,6-tetrahydro-[1,3,5]triazin-2-ylamino]-ethyl}-guanidine] | 100% | 31 nM and 43 nM (2×) | – | Ca^2+ Mobilization % Inh @10 μM ([2]; 10 µM): 100% and 101% |
| COc1ccc(Cn2c(NCCN(C(=N)N)c3ccccn3)nc(=O)n(Cc3ccc(F)cc3)c2=O)cc1 [Cpd 104, N-{2-[5-(4-Fluoro-benzyl)-1-(4-methoxy-benzyl)-4,6-dioxo-1,4,5,6-tetrahydro-[1,3,5]triazin-2-ylamino]-ethyl}-N-pyridin-2-yl-guanidine] | – | 11 nM | – | Ca^2+ Mobilization % Inh @10 μM ([2]; 10 µM): 99% and 102% |
| COc1ccc(Cn2c(NCCNC(=N)NCCc3ccccn3)nc(=O)n(Cc3ccc(F)cc3)c2=O)cc1 [Cpd 105] | – | 89 nM | 100% | – |
| [H]/N=C(\N)NCCNc1nc(=O)n(Cc2ccc(OC(C)(C)C)cc2)c(=O)n1Cc1ccc(OC)cc1 [Cpd 109] | 99% | 129 nM | – | – |
| COc1ccc(Cn2c(NCCNC(=N)Nc3ccccc3F)nc(=O)n(Cc3ccc(F)cc3)c2=O)cc1 [Cpd 118, N-{2-[5-(4-Fluoro-benzyl)-1-(4-methoxy-benzyl)-4,6-dioxo-1,4,5,6-tetrahydro-[1,3,5]triazin-2-ylamino]-ethyl}-N′-(2-fluoro-phenyl)-guanidine] | 98% | 6 nM | – | Ca^2+ Mobilization % Inh @10 μM ([2]; 10 µM): 102% |
| COc1ccc(Cn2c(NCCNC(=N)N)nc(=O)n(CC3CCCC3)c2=O)cc1 [Cpd 124] | – | 1560 nM | 74% | – |
| COc1ccc(Cn2c(NCCNC(=N)NC(=O)c3ccccc3)nc(=O)n(Cc3ccc(F)cc3)c2=O)cc1 [Cpd 134, N-Benzoyl-N′-{2-[5-(4-fluoro-benzyl)-1-(4-methoxy-benzyl)-4,6-dioxo-1,4,5,6-tetrahydro-[1,3,5]triazin-2-ylamino]-ethyl}-guanidine] | 97% | 19 nM and 28 nM | 97, 97% | – |
| N-{2-[5-Benzyl-1-(4-methoxy-benzyl)-4,6-dioxo-1,4,5,6-tetrahydro-[1,3,5]triazin-2-ylamino]-ethyl}-oxyguanidine [Cpd 27] | – | 1970 nM | 55% | – |
| PK1: Recombinant human prokineticin-1 expressed in HEK 293 cells, FLAG cleaved; mixture of full-length ligand and four C-terminal residue truncated product (protein, UniProt P58294 20-105, looked up, mixture with C-terminal 4-residue truncated form, Recombinant human prokineticin-1 expressed in HEK 293 cells, FLAG cleaved; mixture of full-length ligand and four C-terminal residue truncated product) Prokineticin-1: AVITGACERDVQCGAGTCCAISLWLRGLRMCTPLGREGEECHPGSHKVPFFRKRKHHTCPCLPNLLCSRFPDGRYRCSMDLKNINF | – | – | – | change in Isc compared to wild-type littermates [3]: failed to elicit a significant change in Isc; increase in Isc from baseline ([4]; 10 nM PK1, […], n=33 tissues from 22 rats): 13.5±2. μA/cm^2; increase in Isc from baseline ([4]; 100 nM PK1, […], n=42 tissues from 29 rats): 28.7±2.9 μA/cm^2; concentration at which the maximal PK1-evoked response occurred ([4]; […]): 100 nM; effect on tissue conductance (G) ([4]; […]): no significant effect; time for Isc to decline back toward baseline ([4]; basolateral addition, […]): 10 to 15 min; time to peak Isc after single-dose addition ([4]; basolateral addition, […]): 2 to 4 min; pro-secretory effect in the presence of Atropine ([4]; blockade of muscarinic receptors): not blocked; pro-secretory effect in the presence of Tetrodotoxin (TTX) ([4]; nerve conduction toxin present): not blocked |
